Experimental data reported in patent US20240261236A1, “METHODS OF USING NMDA RECEPTOR ANTAGONISTS” (Seelos Therapeutics, Inc., priority 2021, published 2024).

Legend:
[1] = test system: adults with major depressive disorder (MDD) who are at imminent risk of suicide; assay: MADRS Total, Phase 2 Part 1 open-label; type: in vivo, human; conditions: for MADRS mean score: baseline 39.4; for MADRS remission rate (a score of less than 12) / MADRS response rate: summary through Day 29/30
Text: The Montgomery-Åsberg Depression Rating Scale (MADRS) is a diagnostic questionnaire that can be used to measure the severity of a depressive episode in a subject. In some embodiments, the MADRS can be used to measure suicidal ideation. For example, the MADRS includes 10 items directed to the following: 1) apparent sadness (e.g., representing despondency, gloom and despair that is more than just ordinary transient low spirits that is reflected in speech, facial expression, and posture); 2) reported sadness (e.g., representing reports of depressed mood, regardless of whether it is reflected in appearance or not and can include low spirits, despondency or the feeling of being beyond help and without hope); 3) inner tension (e.g., representing feelings of ill-defined discomfort, edginess, inner turmoil, mental tension mounting to either panic, dread or anguish); 4) reduced sleep (e.g., representing the experience of reduced duration or depth of sleep compared to the subject's own normal pattern when well); 5) reduced appetite (e.g., representing the feeling of a loss of appetite compared with when-well); 6) concentration difficulties (e.g., representing difficulties in collecting one's thoughts mounting to an incapacitating lack of concentration); 7) lassitude (e.g., representing difficulty in getting started or slowness in initiating and performing everyday activities); 8) inability to feel (e.g., representing the subjective experience of reduced interest in the surroundings, or activities that normally give pleasure, and the ability to react with adequate emotion to circumstances or people is reduced); 9) pessimistic thoughts (e.g., representing thoughts of guilt, inferiority, self-reproach, sinfulness, remorse and ruin); and 10) suicidal thoughts (e.g., representing the feeling that life is not worth living, that a natural death would be welcome, suicidal thoughts, and preparations for suicide). Each item is rated from 0 units to 6 units, with 0 reflecting that the subject is not at all as described by the item and 6 reflecting that the subject is extremely like what is described by the item. […] As another example, for suicidal thoughts, a score of 0 units can indicate that the subject enjoys life or takes it as it comes; a score of 2 units can indicate that the subject is weary of life and may have fleeting suicidal thoughts; a score of 4 units can indicate that the subject feels he or she would probably be better off dead (e.g., suicidal thoughts are common, and suicide is considered as a possible solution, but without specific plans or intention); and a score of 6 units can indicate that the subject has explicit plans for suicide when there is an opportunity (e.g., the subject has made active preparations for suicide). Thus, the total score, after summation of each score for each item, is on a scale of 0 units to 60 units.
The study schedule is identical for Parts 1 and 2. After admission to the emergency room or hospital, each subject will participate in a 1 to 2 day screening phase, a 16-day treatment phase including SOC during which study drug will be administered 2 times per week, for a total of 5 doses across the 16-day treatment period and a 2-week safety follow-up phase for a total of up to 5 weeks of study participation. Subjects will be treated as inpatients for approximately 7 days (including screening), and assuming the subject meets readiness for discharge criteria, will be discharged on Day 6 to continue the trial as outpatients, provided it is clinically appropriate to do so. Subjects will return to the clinic to receive study drug and to undergo study assessments 2 times per week until Day 16. Subjects will be evaluated for efficacy using multiple psychometric scales and for safety using clinical laboratory assessments, electrocardiograms (ECGs), vital signs, and physical examinations. […]

[2] = Hemodynamic effects (blood pressure), Phase 2 Part 1; type: in vivo, human; conditions: for Diastolic BP: baseline 79.0; for Systolic BP: baseline 121
Text: The study schedule is identical for Parts 1 and 2. After admission to the emergency room or hospital, each subject will participate in a 1 to 2 day screening phase, a 16-day treatment phase including SOC during which study drug will be administered 2 times per week, for a total of 5 doses across the 16-day treatment period and a 2-week safety follow-up phase for a total of up to 5 weeks of study participation. Subjects will be treated as inpatients for approximately 7 days (including screening), and assuming the subject meets readiness for discharge criteria, will be discharged on Day 6 to continue the trial as outpatients, provided it is clinically appropriate to do so. Subjects will return to the clinic to receive study drug and to undergo study assessments 2 times per week until Day 16. Subjects will be evaluated for efficacy using multiple psychometric scales and for safety using clinical laboratory assessments, electrocardiograms (ECGs), vital signs, and physical examinations. After the last dose of study drug, subjects will continue to be monitored for safety for 2 weeks, including 4 in-person safety follow-up visits on Days 19, 22, 25/26, and 29/30.

[3] = test system: adults with major depressive disorder (MDD) who are at imminent risk of suicide; assay: C-SSRS, Phase 2 Part 1; conditions: 90 mg IN+SOC; for C-SSRS score (yes or no) for suicidal ideation: 24 hours post-administration, baseline yes
[4] = test system: adults with major depressive disorder (MDD) who are at imminent risk of suicide; assay: Treatment-emergent adverse events, Phase 2 Part 1

CNC1(c2ccccc2Cl)CCCCC1=O (racemic) [intranasal racemic ketamine, 1:1 mixture of the two enantiomers of ketamine: (R)-2-(2-chlorophenyl)-2-(methylamino)cyclohexanone and (S)-2-(2-chlorophenyl)-2-(methylamino)cyclohexanone]
MADRS Total ([1]; 90 mg IN+SOC, Subject 1, 24 hours post-administration, baseline 35 units): 8 units
MADRS Total ([1]; 90 mg IN+SOC, Subject 2, 24 hours post-administration, baseline 38 units): 15 units
MADRS Total ([1]; 90 mg IN+SOC, Subject 2, Day 8, after second dose on Day 4): 16 units
MADRS Total reduction ([1]; 90 mg IN+SOC, both subjects, 24 hours): > 50%
MADRS mean (SD) change from baseline ([1]; 17 subjects enrolled, 24 hours post-dose): −24.9 (8.34)
MADRS mean (SD) change from baseline ([1]; 17 subjects enrolled, Day 16): −31.6 (7.31)
subjects who experienced MADRS remission ([1]; 24 hours post-dose): 35.5%
subjects who experienced MADRS response ([1]; 24 hours post-dose): 76.5%
MADRS mean score ([1]; Day 1): 14.5
subjects who experienced MADRS remission ([1]; Day 16): 78.6%
subjects who experienced MADRS response ([1]; Day 16): 92.9%
MADRS mean score ([1]; Day 16): 7.4
MADRS mean score ([1]; Day 29): 6.3
MADRS mean (SD) change from baseline ([1]; final follow-up on Day 29/30): −32.1 (7.4)
mean MADRS score ([1]; final follow-up on Day 29/30): 6.3 (6.60)
subjects who experienced MADRS remission ([1]; study end (Day 29/30)): 76.9%
subjects who experienced MADRS response ([1]; study end (Day 29/30)): 100%
MADRS remission rate (a score of less than 12) ([1]; Day 1): 23.5%
MADRS response rate ([1]; Day 1): 76.5%
MADRS remission rate (a score of less than 12) ([1]; Day 16): 78.6%
MADRS response rate ([1]; Day 16): 92.9%
MADRS response rate ([1]; Day 29, 14 days after the last dose on Day 15): 100%
Diastolic BP ([2]; 1 hour post first dose): 80.9
Systolic BP ([2]; 1 hour post first dose): 125.8
Diastolic BP ([2]; 2 hours post first dose): 78.5
Systolic BP ([2]; 2 hours post first dose): 121.3
C-SSRS score (yes or no) for suicidal ideation ([3]; Subject 1): no
C-SSRS score (yes or no) for suicidal ideation ([3]; Subject 2): no
C-SSRS scores for suicidal ideation and suicidal behavior ([3]; both subjects, remainder of the study): no
serious adverse events ([4]; 90 mg IN+SOC, Part 1): no serious adverse events
severity of adverse events ([4]; 90 mg IN+SOC, Part 1): mild or moderate
subjects who experienced a treatment-emergent adverse event (TEAE) ([4]; 17 subjects): 47%
tolerability ([4]; Part 1): well tolerated
vital sign or blood pressure-related AEs ([4]; Part 1): no vital sign or blood pressure-related AEs were reported
TEAE feeling abnormal ([4]; n=2): 11.8%
TEAE nausea ([4]; n=2): 11.8%
TEAE sedation ([4]; n=2): 11.8%
TEAE dizziness ([4]; n=3): 17.6%
TEAE headache ([4]; n=4): 23.5%
